Laboratory results as given in US10688197B2, “Non-alcoholic fatty liver regulator 14-3-3 protein” (Korea University Research and Business Foundation, priority 2015, dated 2020).

Assays:
Type in all cases: cell-based
[1] = molecular target: T1, PPARγ2 S273A mutant (Homo sapiens, UniProt P37231, S273A); test: aP2 promoter luciferase reporter with PPARγ2 S273A mutant in HEK-293T cells; conditions: overexpression of 14-3-3β or 14-3-3γ, FIG. 4C/4D
T1 construct: expressed in transfected cells; host or cells: HEK-293T
T1 sequence (P37231 1-505 S273A): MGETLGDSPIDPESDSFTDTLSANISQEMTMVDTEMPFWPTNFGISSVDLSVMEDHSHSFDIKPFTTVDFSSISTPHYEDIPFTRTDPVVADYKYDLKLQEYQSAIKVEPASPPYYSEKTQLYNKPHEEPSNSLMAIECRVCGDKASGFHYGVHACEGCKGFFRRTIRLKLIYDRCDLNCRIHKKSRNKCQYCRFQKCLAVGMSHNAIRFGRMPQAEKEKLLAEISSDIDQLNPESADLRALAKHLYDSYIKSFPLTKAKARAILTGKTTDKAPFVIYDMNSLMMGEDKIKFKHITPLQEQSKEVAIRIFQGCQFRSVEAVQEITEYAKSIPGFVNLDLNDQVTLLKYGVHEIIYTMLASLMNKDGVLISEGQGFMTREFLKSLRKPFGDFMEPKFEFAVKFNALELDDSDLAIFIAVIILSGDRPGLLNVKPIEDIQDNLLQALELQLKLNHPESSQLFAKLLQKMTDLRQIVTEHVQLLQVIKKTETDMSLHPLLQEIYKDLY
Protocol: In addition, HEK-293T cells were seeded in a 12-well plate at a density of 1×10^5 cells per each well, and then transfected with an aP2 promoter construct (0.5 μg), Flag-PPARγ2 (S112A) DNA (0.5 μg) or Flag-PPARγ2 (S273A) DNA (0.5 μg), and mGST-14-3-3β DNA (0.5 μg) or mGST-14-3-3γ DNA (0.5 μg) using an E-fection plus reagent (Lugen). A ratio of DNA to the E-fection plus reagent was 1:2, and this method was performed according to a manufacturer's manual. The corresponding cells were washed with ice-cold PBS, and lysed using 80 μl/well of a reporter lysis buffer (Promega, Madison, Wis.), and the lysed cells were centrifuged at 10,000×g and 4° C. for 10 minutes to collect a supernatant, and luciferase activity was measured. As an instrument, Luminometer 20/20n (Turner Biosystems, Sunnyvale, Calif.) was used. For normalization, the cells were cotransfected with pSV40-β-galactosidase. For the collected supernatant, β-galactosidase activity was measured and the luciferase activity was revised, and the obtained values were plotted. At this time, a β-galactosidase enzyme analysis system (Promega, Madison, Wis.) was used, and analysis was performed using a DU530 spectrophotometer (Beckman Instruments, Palo Alto, Calif.).

[2] = test system: FAT/CD36 promoter; test: Chromatin immunoprecipitation (ChIP assay), binding of PPARγ2 to FAT/CD36 promoter in HepG2 cells; conditions: overexpression, FIG. 7C upper side
Protocol: In addition, for chromatin immunoprecipitation (ChIP), HepG2 cells were seeded in a 100 mm plate at a density of 4×10^6 cells per each well, and then transfected with Flag-PPARγ2 DNA (4 μg), mGST-14-3-3β DNA (4 μg) or mGST-14-3-3γ DNA (4 μg), and si-14-3-3β (20 μM, Santa Cruz) or si-14-3-3γ (20 μM, Santa Cruz) using an E-fection plus reagent (Lugen). A ratio of DNA to the E-fection plus reagent was 1:2, and this method was performed according to a manufacturer's manual. The corresponding cells were treated with 0.75% formaldehyde at room temperature for 15 minutes, glycine was added thereto, and the resulting cells were scraped into ice-cold PBS and centrifuged at 1,000×g and 4° C. for 3 minutes to remove a supernatant, pellets were dissolved with 400 μl of FA lysis buffer (50 mM HEPES, 150 mM NaCl, 2 mM EDTA pH 8.0, 1% Triton-X100, 0.1% NaDeoxycholate), and then lysed using a sonicator twice for 10 minutes at a high voltage under the following condition: lysis for 30 seconds and resting for 30 seconds. […]
In addition, the binding of PPARγ2 and a binding strength thereof according to the expression of 14-3-3β and 14-3-3γ were evaluated by ChIP assay using a PPAR response element (PPRE) known as a binding site of PPARγ2 present in the FAT/CD36 promoter. […]

[3] = test system: SREBP-1c protein; test: SREBP-1c protein expression by western blotting in HepG2 cells; conditions: HepG2, overexpression, 200 μM oleic acid 72 hours, FIG. 7D
Protocol: In addition, HepG2 cells were seeded in a 6-well plate at a density of 5×10^5 cells per each well, and then transfected with HA-14-3-3β DNA (1 μg) or HA-14-3-3γ DNA (1 μg) using an E-fection plus reagent (Lugen). A ratio of DNA to the E-fection plus reagent was 1:2, and this method was performed according to a manufacturer's manual. After transfection, the cells were treated with 200 μM of oleic acid (OA) for 72 hours, washed with ice-cold PBS, and lysed with 80 μl/well of a lysis buffer (150 mM NaCl, 1 mM EDTA, 1% Nonidet P-40, 5% glycerol, 25 mM tris-HCl, pH 7.5, protease inhibitor added), the lysed cells were centrifuged at 10,000×g and 4° C. for 10 minutes to extract proteins, and 30 μg of the proteins was separated on a 10% SDS-PAGE gel and identified using each of the antibodies (HA, SREBP-1c: Santa Cruz) by western blotting, and all antibodies were used in a ratio of 1:3000.

Row | transcriptional activity of PPARγ2 S273A mutant [1] | Substance | binding of PPARγ2 to the FAT/CD36 promoter [2] | expression of the SREBP-1c protein [3]
1 | no change | 14-3-3β: 14-3-3 isoform protein overexpressed by DNA transfection; increases the transcriptional activity of PPARγ2 by binding to PPARγ2 | increased | increased
2 | no change | 14-3-3γ: 14-3-3 isoform protein overexpressed by DNA transfection; decreases the transcriptional activity of PPARγ2; proposed active ingredient | inhibited | reduced
